Assay results as given in US20090028795A1, “NOD1 as an Anti-Tumor Agent” (priority 2005, published 2009).
Non-standard residues stand in square brackets, D forms with d. No end group written: not given here. DAP = diaminopimelic acid

Tests used:
Format in all cases: cell-based, human
[1] = tested on: poly(ADP-ribose)polymerase (PARP) and capases 6, 7, 8 and 9; test: Western blot of PARP and caspase cleavage in MCF-7 cells; settings: CHX 0.5 ug/ml, 24 h
Method: Cleavage of PARP and various caspases was detected by Western blot analysis of cell MCF-7 Blasto, MCF-7 C20 and MCF-7 Nod1 after stimulation with γTriDAP, αTriDAP or medium (control) in the presence or absence of CHX (0.5 ug/ml) for 24 h. Cells were harvested, subjected to western blotting and PARP, caspases, p20, p41/43 and p35 were detected with antibodies reactive thereof.
Western blot analysis and immunoprecipitation. Cells were washed extensively and lysed using lysis buffer containing 50 mM Hepes, 100 mM NaCl, 2 mM EDTA, 10% glycerol, 1% Nonidet P-40, 14 μM pepstatin A, 100 uM leupeptin, 3 mM benzamidine, 1 mM PMSF, 1 mM sodium pyrophosphate, 10 mM sodium orthovanadate, 100 U/ml aprotinin, and 100 mM sodium fluoride. After incubation for 30 min on ice, cell lysates were centrifuged (14000 rpm, 10 min, 4° C.) and the supernatants were recovered. For immunoprecipitation, cell lysates were mixed with 5 μg of antibody for 3 hour at 4° C. under constant agitation. Immune complexes were allowed to bind to 20 μl protein A-Sepharose beads overnight, beads were washed three times with lysis buffer. Immunoprecipitates were separated on SDS-PAGE and transferred to PVDF membranes.

MCF-7 Nod2 cells = test: Apoptosis (PI, flow cytometry) in MCF-7 cells over-expressing Nod2; settings: 20 ug/ml plus CHX, 48 h
Method: In FIG. 5A, MCF-7 Blasto, MCF-7 Nod1 and MCF-7 Nod2 were treated with the NOD1 ligand γTriDAP or the Nod2 ligand muramyl dipeptide (MDP)(20 ug/ml each) in the presence or absence of CHX for 48 h. Cells were then incubated with PI and apoptotic cell death was measured by flow cytometry. […] In FIG. 5B, expression of NOD1 and NOD2 was confirmed by Western blot analysis using anti-Myc antibodies for detection of the recombinant proteins. […] MCF-7 Blasto, MCF-7 Nod1 and MCF-7 Nod2 cells were stimulated with γTriDAP or MDP in the presence or absence of CHX (0.5 ug/ml) for 24 h. Cell supernatants were then harvested and assayed for IL-8 secretion.
Cell viability assays. Propidium iodide exclusion assay: Cells were stimulated as indicated for 2 days. […] The extent of cell death was analyzed with a FACSCalibur flow cytometer (Becton Dickinson, Mountain View, Calif.). […] Cells were fixed in 4% paraformaldehyde and examined by fluorescence microscopy.
Experiments were also performed to ascertain whether activation of Nod2 by its specific activator, muramyl dipeptide (MDP), would initiate apoptosis in parental MCF-7 cells or in MCF-7 cells over-expressing Nod2 (MCF-7 Nod2). Thus, γTriDAP or MDP were added to each of these lines and apoptosis (FIG. 5A) and IL-8 production (FIG. 5C) were measured. […]

MCF-7 C20/Nod1 cells = test: Propidium iodide exclusion apoptosis assay, estrogen/tamoxifen studies; settings: γTriDAP-induced, C20/Nod1 cells
Text: FIG. 12A-C illustrates that estrogen increases γTriDAP-induced apoptosis and tamoxifen inhibits γTriDAP-induced apoptosis in various MCF-7 tumor cell lines. FIG. 12A graphically illustrates the percent apoptosis in MCF-7 Blasto, MCF-7 C20 and MCF-7 C20/Nod1 cells cultured in increasing amounts or estrogen and either cycloheximide (CHX) or CHX plus γTriDAP (γTri). FIG. 12B graphically illustrates the percent apoptosis in MCF-7 Blasto, MCF-7 C20 and MCF-7 C20/Nod1 cells cultured in increasing amounts of tamoxifen and either cycloheximide (CHX) or CHX plus γTriDAP (γTri). For the estrogen studies, MCF-7 cells were cultured in charcoal-treated medium and stimulated with γTriDAP/CHX in the presence of increasing concentrations of estrogen (E2) and cell viability was measured by propidium iodide (PI) exclusion. For the tamoxifen studies, cells were treated with tamoxifen prior to addition of γTriDAP/CHX and cell viability measured by PI exclusion. […] Total protein extracts from MCF-7 Blasto, MCF-7 C20 and MCF-7 C20/Nod1 cells and from cells isolated from tumors were analyzed by immunoblotting using antibody against estrogen receptor (ERα), and ERK2 as loading control.
Cell viability assays. Propidium iodide exclusion assay: Cells were stimulated as indicated for 2 days. Subsequently, cells were harvested, washed twice in FACS buffer (PBS containing 1% FCS and 0.1% NaN3) and resuspended in propidium iodide (PI)-containing FACS buffer (4 ug/ml). The extent of cell death was analyzed with a FACSCalibur flow cytometer (Becton Dickinson, Mountain View, Calif.). DAPI staining: MCF-7 cells were plated in chamber slides, and stimulated for 2 days. Cells were washed with PBS and apoptotic nuclei were stained with 1 μg/ml DAPI (Sigma Chemical Co., St. Louis, Mo.). Cells were fixed in 4% paraformaldehyde and examined by fluorescence microscopy.
To determine whether the presence of estrogens modulates Nod1-induced apoptotic pathway, cells were cultured in medium containing charcoal-treated serum.

In the case of “D-Ala-L-Glu-Diaminopimelic acid ([dA]-Glu-[DAP]; also: Glu joined to DAP through its gamma carboxyl (γTriDAP))”, the “proteolytic cleavage of PARP and capases 6, 7, 8 and 9” value [1] was “resulted in proteolytic cleavage”, the apoptosis (MCF-7 Nod2 cells) was “produced cell death” and the apoptosis (MCF-7 C20/Nod1 cells; with steroids) was 80%. It also gave an apoptosis (MCF-7 C20/Nod1 cells; without steroids (charcoal-treated serum)) of 10%.
